Ten compounds from patent US12679843B2, “Pyrrolopyrimidine amines as complement inhibitors” (BioCryst Pharmaceuticals, Inc., priority 2020, dated 2026) can be followed below.

Structures are written as SMILES.

Factor D, sequence (P00746 26-253): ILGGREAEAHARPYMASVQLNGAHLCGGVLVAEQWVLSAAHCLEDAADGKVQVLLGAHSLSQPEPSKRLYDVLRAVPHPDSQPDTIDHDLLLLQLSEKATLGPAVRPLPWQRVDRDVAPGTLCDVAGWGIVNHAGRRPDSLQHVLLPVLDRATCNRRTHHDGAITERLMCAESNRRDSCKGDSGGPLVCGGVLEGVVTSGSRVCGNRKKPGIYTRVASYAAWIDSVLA

The assay deals with Factor D (Homo sapiens, UniProt P00746). The assay is described as follows: Factor D esterolytic assay (Z-Lys-SBzl thioester substrate, DTNB, 405 nm). The assay is classed as biochemical. As to conditions: substrate Z-Lys-SBzl 1.29 mM, 100 mM HEPES, 500 mM NaCl, pH 7.5, 10% DMSO, tested a minimum of three times. Summed up:
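Human Factor D hydrolysis of Z-Lys-SBzl (1.29 mM) monitored at 405 nm via DTNB thiol detection for 600 s, 690 nm background subtracted. Buffer 100 mM HEPES, 500 mM NaCl, pH 7.5, 10% DMSO; substrate added immediately or after room-temperature preincubation. IC50 from percent inhibition of rate, at least three tests.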
As to `Cc1ncc(-c2cc(C)c3c(c2)c2c(N)ncnc2n3CC(=O)N2C[C@H](F)C[C@H]2C(=O)Nc2cccc(Br)n2)cn1` [Compound 312a, (2S,4R)-1-(2-(4-amino-8-methyl-6-(2-methylpyrimidin-5-yl)-9H-pyrimido[4,5-b]indol-9-yl)acetyl)-N-(6-bromopyridin-2-yl)-4-fluoropyrrolidine-2-carboxamide], the IC50 (as a rule, the concentration that gives 50% inhibition) was < 100 nM. The figure for `CN(C)c1nc(N)c2ncn(CC(=O)N3[C@@H]4C[C@@H]4C[C@H]3C(=O)NCc3cccc(Cl)c3F)c2n1` [Compound 96e, (1R,3S,5R)-2-(2-(6-amino-2-(dimethylamino)-9H-purin-9-yl)acetyl)-N-(3-chloro-2-fluorobenzyl)-2-azabicyclo[3.1.0]hexane-3-carboxamide] is > 1000 nM; for `Cc1ccc(Br)nc1NC(=O)[C@@H]1C[C@@]2(C)C[C@H]2N1C(=O)Cn1c2ncnc(N)c2c2cc(C(F)(F)F)cc(C)c21` [Compound 302a, (1R,3S,5R)-2-(2-(4-amino-8-methyl-6-(trifluoromethyl)-9H-pyrimido[4,5-b]indol-9-yl)acetyl)-N-(6-bromo-3-methylpyridin-2-yl)-5-methyl-2-azabicyclo[3.1.0]hexane-3-carboxamide] it is < 100 nM; for `C[C@@]12C[C@@H](C(=O)Nc3cccc(Br)n3)N(C(=O)Cn3c4ncnc(N)c4c4cccc(Br)c43)[C@@H]1C2` [Compound 186a, (1R,3S,5R)-2-(2-(4-amino-8-bromo-9H-pyrimido[4,5-b]indol-9-yl)acetyl)-N-(6-bromopyridin-2-yl)-5-methyl-2-azabicyclo[3.1.0]hexane-3-carboxamide] it is < 100 nM.

`Nc1ncnc2c1ncn2CC(=O)N1[C@@H]2C[C@@H]2C[C@H]1C(=O)Nc1cncc(Br)n1` [Compound 112b, (1R,3S,5R)-2-(2-(6-amino-9H-purin-9-yl)acetyl)-N-(6-bromopyrazin-2-yl)-2-azabicyclo[3.1.0]hexane-3-carboxamide]: the IC50 was < 100 nM. Next, `Nc1nccc2c1ccn2CC(=O)N1[C@@H]2C[C@@H]2C[C@H]1C(=O)NCc1cccc(Cl)c1F` [Compound 88f, (1R,3S,5R)-2-(2-(4-amino-1H-pyrrolo[3,2-c]pyridin-1-yl)acetyl)-N-(3-chloro-2-fluorobenzyl)-2-azabicyclo[3.1.0]hexane-3-carboxamide]: > 1000 nM; `Cc1ccc2c(n1)c1c(N)ncnc1n2CC(=O)N1[C@H](C(=O)Nc2cccc(Br)n2)C[C@@]2(C)C[C@@H]12` [Compound 286a, (1R,3S,5R)-2-(2-(4-amino-6-methyl-9H-pyrido[2′,3′:4,5]pyrrolo[2,3-d]pyrimidin-9-yl)acetyl)-N-(6-bromopyridin-2-yl)-5-methyl-2-azabicyclo[3.1.0]hexane-3-carboxamide]: < 100 nM. `C[C@@]12C[C@@H](C(=O)Nc3cccc(Br)n3)N(C(=O)Cn3c4ccc(CCC(=O)O)cc4c4c(N)ncnc43)[C@@H]1C2` [Compound 214b, 3-(4-amino-9-(2-((1R,3S,5R)-3-((6-bromopyridin-2-yl)carbamoyl)-5-methyl-2-azabicyclo[3.1.0]hexan-2-yl)-2-oxoethyl)-9H-pyrimido[4,5-b]indol-6-yl)propanoic acid]: the IC50 is < 100 nM.

In the case of `Cc1ccc(-c2cc(C)c3c(c2)c2c(N)ncnc2n3CC(=O)N2[C@@H]3C[C@@H]3C[C@H]2C(=O)Nc2cccc(Br)n2)cc1` [Compound 256a, (1R,3S,5R)-2-(2-(4-amino-8-methyl-6-(p-tolyl)-9H-pyrimido[4,5-b]indol-9-yl)acetyl)-N-(6-bromopyridin-2-yl)-2-azabicyclo[3.1.0]hexane-3-carboxamide], the IC50 was < 100 nM. The figure for `Cc1cc(C(F)(F)F)cc2c3c(N)ncnc3n(CC(=O)N3C[C@](C)(F)C[C@H]3C(=O)Nc3cccc(Cl)n3)c12` [Compound 320c, (2S,4R)-1-(2-(4-amino-8-methyl-6-(trifluoromethyl)-9H-pyrimido[4,5-b]indol-9-yl)acetyl)-N-(6-chloropyridin-2-yl)-4-fluoro-4-methylpyrrolidine-2-carboxamide] is < 100 nM.
